Data as given in US8952024B2, “Herbicidal pyrimidone derivatives” (E I du Pont de Nemours and Company, priority 2009, dated 2015).
Where two headings read alike, the source gives them in different places.

Key:
Assay type in all cases: in vivo
[1] = tested on: barnyardgrass (Echinochloa crus-galli); test: Test A pre-/postemergence plant response; details: Echinochloa crus-galli, 240 h, read-out: Plant response rating, Barnyardgrass; for pest or weed control at 125 g/ha: 125 g ai/ha; for pest or weed control at 500 g/ha: 500 g ai/ha, approx. ten days
Summary of the method: (§1)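 Greenhouse pots of loam/sand received directed preemergence soil sprays or postemergence sprays (plants 2–10 cm, 1–2 leaf stage), compounds formulated in non-phytotoxic solvent with surfactant. Injury was rated visually versus untreated controls after about ten days on a 0 (no effect) to 100 (complete control) scale.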

corn (Zea mays) = test: Test A pre-/postemergence plant response; details: Zea mays, 240 h; for Corn plant response rating (crop injury, 0 = no effect, 100 = complete kill) at 125 g/ha: 125 g ai/ha; for Corn plant response rating (crop injury, 0 = no effect, 100 = complete kill) at 500 g/ha: 500 g ai/ha, approx. ten days
Summary of the method: as §1

[2] = tested on: giant foxtail (Setaria faberii); test: Test A pre-/postemergence plant response; details: Setaria faberi, 240 h, read-out: Plant response rating, Foxtail, Giant; for pest or weed control at 125 g/ha: 125 g ai/ha; for pest or weed control at 500 g/ha: 500 g ai/ha, approx. ten days
Summary of the method: as §1

[3] = tested on: large crabgrass (Digitaria sanguinalis); test: Test A pre-/postemergence plant response; details: Digitaria sanguinalis, 240 h, read-out: Plant response rating, Crabgrass, Large; for pest or weed control at 125 g/ha: 125 g ai/ha; for pest or weed control at 500 g/ha: 500 g ai/ha, approx. ten days
Summary of the method: as §1

[4] = tested on: morningglory (Ipomoea spp.); test: Test A pre-/postemergence plant response; details: Ipomoea, 240 h, read-out: Plant response rating, Morningglory; for pest or weed control at 125 g/ha: 125 g ai/ha
Summary of the method: as §1

[5] = tested on: pigweed (Amaranthus retroflexus); test: Test A pre-/postemergence plant response; details: Amaranthus retroflexus, 240 h, read-out: Plant response rating, Pigweed; for pest or weed control at 125 g/ha: 125 g ai/ha; for pest or weed control at 500 g/ha: 500 g ai/ha, approx. ten days
Summary of the method: as §1

[6] = tested on: velvetleaf (Abutilon theophrasti); test: Test A pre-/postemergence plant response; details: Abutilon theophrasti, 240 h, read-out: Plant response rating, Velvetleaf; for pest or weed control at 125 g/ha: 125 g ai/ha; for pest or weed control at 500 g/ha: 500 g ai/ha, approx. ten days
Summary of the method: as §1

[7] = tested on: wheat (Triticum aestivum); test: Test A pre-/postemergence plant response; details: Triticum aestivum, 240 h, read-out: Plant response rating, Wheat; for plant injury at 125 g/ha: 125 g ai/ha; for plant injury at 500 g/ha: 500 g ai/ha, approx. ten days
Summary of the method: as §1

[8] = tested on: cocklebur (Xanthium strumarium); test: Test B pre-/postemergence plant response
Summary of the method: (§2)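 Visual injury, 0–100 scale (100 = complete control), rated against controls after 13 to 15 days in greenhouse. Pre-emergence: seeds in loam/sand soil, treated at planting. Post-emergence: 1- to 4-leaf plants (2 to 18 cm) in peat/vermiculite medium. Compounds formulated in non-phytotoxic solvent with surfactant.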

[9] = tested on: morningglory (Ipomoea coccinea); test: Test B pre-/postemergence plant response
Summary of the method: as §2

soybean (Glycine max) = test: Test B pre-/postemergence plant response
Summary of the method: as §2

[10] = tested on: wheat (Triticum aestivum); test: Test B pre-/postemergence plant response
Summary of the method: as §2

[11] = post-emergence, Postemergence, 0 to 100 scale where 0 is no effect and 100 is complete control
[12] = post-emergence, Postemergence, 0 to 100 scale, 0 = no effect, 100 = complete control
[13] = pre-emergence, Preemergence, 0 to 100 scale, 0 = no effect, 100 = complete control
[14] = pre-emergence, Preemergence, visual injury, 0 to 100 scale (0 no effect, 100 complete control)
[15] = 62 g ai/ha, postemergence, 0 is no effect, 100 is complete control, 13 to 15 days

O=C1CCCC(O)=C1C(=O)c1cnc(-c2ccccc2)n(C2CCCCC2)c1=O [Compound 128, 3-cyclohexyl-5-[(2-hydroxy-6-oxo-1-cyclohexen-1-yl)carbonyl]-2-phenyl-4(3H)-pyrimidinone]
0%: Corn plant response rating (crop injury, 0 = no effect, 100 = complete kill) at 125 g/ha (corn (Zea mays); [13]) | Corn plant response rating (crop injury, 0 = no effect, 100 = complete kill) at 500 g/ha (corn (Zea mays); [14]) | plant injury at 125 g/ha [7, 11] | plant injury at 125 g/ha [7, 13] | plant injury at 31 g/ha ([10]; Triticum aestivum, post-emergence, Postemergence, 31 g ai/ha, 0 to 100 scale (0 no effect, 100 complete control), read-out: Plant response rating, Wheat) | plant injury at 125 g/ha ([10]; Triticum aestivum, post-emergence, Postemergence, 125 g ai/ha, scale 0 to 100 (0 no effect, 100 complete control), read-out: Plant response rating, Wheat)
100%: pest or weed control at 125 g/ha [1, 11] | pest or weed control at 500 g/ha [1, 12] | pest or weed control at 500 g/ha [1, 14] | pest or weed control at 500 g/ha [3, 14] | pest or weed control at 125 g/ha [4, 11] | pest or weed control at 500 g/ha ([4]; post-emergence, Postemergence, 500 g ai/ha, 0 to 100 scale, 0 = no effect, 100 = complete control, approx. ten days) | pest or weed control at 125 g/ha [5, 11] | pest or weed control at 500 g/ha [5, 12] | pest or weed control at 500 g/ha [5, 14] | pest or weed control at 125 g/ha [6, 11] | pest or weed control at 500 g/ha [6, 12] | pest or weed control at 500 g/ha [6, 14] | pest or weed control at 125 g/ha ([8]; Xanthium strumarium, post-emergence, Postemergence, 125 g ai/ha, scale 0 to 100 (0 no effect, 100 complete control), read-out: Plant response rating, Cocklebur) | pest or weed control at 250 g/ha ([8]; Xanthium strumarium, post-emergence, Postemergence, 250 g ai/ha, scale 0 to 100 (0 no effect, 100 complete control), 13 to 15 days, read-out: Plant response rating, Cocklebur)
90%: pest or weed control at 125 g/ha [2, 11] | pest or weed control at 500 g/ha [2, 12] | pest or weed control at 500 g/ha [2, 14] | pest or weed control at 125 g/ha [3, 11] | pest or weed control at 500 g/ha [3, 12] | pest or weed control at 125 g/ha ([9]; Ipomoea, post-emergence, Postemergence, 125 g ai/ha, scale 0 to 100 (0 no effect, 100 complete control), read-out: Plant response rating, Morningglory) | pest or weed control at 250 g/ha ([9]; Ipomoea, post-emergence, Postemergence, 250 g ai/ha, scale 0 to 100 (0 no effect, 100 complete control), 13 to 15 days, read-out: Plant response rating, Morningglory)
80%: pest or weed control at 125 g/ha [3, 13] | pest or weed control at 125 g/ha [4, 13] | pest or weed control at 125 g/ha [5, 13] | pest or weed control at 125 g/ha [6, 13] | pest or weed control at 31 g/ha ([9]; Ipomoea, post-emergence, Postemergence, 31 g ai/ha, 0 to 100 scale (0 no effect, 100 complete control), read-out: Plant response rating, Morningglory)
30%: plant injury at 500 g/ha [7, 14]
5%: plant injury at 250 g/ha ([10]; Triticum aestivum, post-emergence, Postemergence, 250 g ai/ha, scale 0 to 100 (0 no effect, 100 complete control), 13 to 15 days, read-out: Plant response rating, Wheat)
20%: Corn plant response rating (crop injury, 0 = no effect, 100 = complete kill) at 125 g/ha (corn (Zea mays); [11]) | plant injury at 500 g/ha [7, 12]
98: Cocklebur plant response rating (0 to 100 scale) [8, 15] | Soybean plant response rating (0 to 100 scale) (soybean (Glycine max); [15])
98%: pest or weed control at 31 g/ha ([8]; Xanthium strumarium, post-emergence, Postemergence, 31 g ai/ha, 0 to 100 scale (0 no effect, 100 complete control), read-out: Plant response rating, Cocklebur) | plant injury at 31 g/ha (soybean (Glycine max); Glycine max, post-emergence, Postemergence, 31 g ai/ha, 0 to 100 scale (0 no effect, 100 complete control), read-out: Plant response rating, Soybean) | plant injury at 125 g/ha (soybean (Glycine max); Glycine max, post-emergence, Postemergence, 125 g ai/ha, scale 0 to 100 (0 no effect, 100 complete control), read-out: Plant response rating, Soybean) | plant injury at 250 g/ha (soybean (Glycine max); Glycine max, post-emergence, Postemergence, 250 g ai/ha, scale 0 to 100 (0 no effect, 100 complete control), 13 to 15 days, read-out: Plant response rating, Soybean)
10%: pest or weed control at 125 g/ha [1, 13]
0: Wheat plant response rating (0 to 100 scale) [10, 15]
80: Morningglory plant response rating (0 to 100 scale) [9, 15]
60%: Corn plant response rating (crop injury, 0 = no effect, 100 = complete kill) at 500 g/ha (corn (Zea mays); [12]) | pest or weed control at 125 g/ha [2, 13]
